Laboratory results published in patent US20090048295A1, “SUBSTITUTED 5,6,7,8-TETRAHYDROQUINOLINE DERIVATIVES, COMPOSITIONS, AND METHODS OF USE THEREOF” (priority 2007, published 2009).
Several values for one entry are separate records, joined by “and”; a condition that tells them apart may be missing. Identical values can stand only once.

Assays:
[1] = target: T1, C5a receptor (Homo sapiens, UniProt P21730); assay: Calcium Mobilization Assay (C5a-induced Ca2+ mobilization, FLIPR, differentiated U937 cells); type: cell-based; parameters: endogenous in cells; host or cells: U937 cells differentiated with dibutyryl cAMP; conditions: […] recombinant human C5a, 20 min pre-incubation, multiple values = duplicate experiments, read-out: C5a Induced Ca Mobil. Average IC50
T1 sequence (P21730 1-350): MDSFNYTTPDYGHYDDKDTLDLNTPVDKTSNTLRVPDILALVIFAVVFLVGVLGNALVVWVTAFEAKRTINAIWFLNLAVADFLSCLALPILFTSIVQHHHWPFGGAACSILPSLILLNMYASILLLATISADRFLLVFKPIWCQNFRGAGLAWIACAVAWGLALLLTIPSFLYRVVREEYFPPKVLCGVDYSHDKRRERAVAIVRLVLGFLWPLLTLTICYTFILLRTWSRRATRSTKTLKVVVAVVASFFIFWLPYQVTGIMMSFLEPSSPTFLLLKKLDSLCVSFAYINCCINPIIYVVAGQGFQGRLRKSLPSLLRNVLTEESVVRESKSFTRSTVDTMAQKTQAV
Description: U937 cells (human monocytic cell line) were cultured in RPMI-1640 medium supplemented with 10% fetal bovine serum, 10 mM HEPES, 0.11 g/L pyruvate, 0.29 g/L L-glutamine, 100 IU/mL penicillin G and […] streptomycin. Dibutyryl cAMP (1 mM) was added to induce differentiation 2 or 3 days prior to loading the cells with 4.4 μM Fluo-3AM (Molecular Probes) for 30 min at 37° C. in RPMI medium containing 20 mM HEPES, 0.1% bovine serum albumin (BSA) and 5 mM probenecid. After washing, cells were dissolved at 2×10^6 cells/ml in HBSS buffer (Invitrogen 14190-094) supplemented with 10 mM HEPES, 2.5 mM probenecid and 0.1% BSA (pH=7.4), and sedimented by 1 min centrifugation (1500 rpm) in black 96-well plates (Costar) (200,000 cells/well). A 100× concentration range of test compounds was prepared in DMSO and further diluted in HBSS buffer. U937 cells were pre-incubated with compound for 20 minutes at room temperature (1% DMSO), before recombinant human C5a (Sigma) was added to the cells (1.5 nM). Changes in intracellular free Ca^2+ concentration were measured using the Fluorescent Imaging Plate Reader (FLIPR, Molecular Devices). Fluorescence was recorded every second from 10 seconds before the addition of C5a until 2 min after the addition. The maximal fluorescence obtained during this time frame was used for further calculations.

[2] = target: T1, C5a receptor; assay: [125I]-C5a Radioligand Binding Assay (competition binding, differentiated U937 cells); conditions: [125I]-C5a 0.05 nM, U937 cells, multiple values = duplicate experiments; for [125I]-C5a Binding % Inhibition 1 μM: test compound 1 μM; for [125I]-C5a Binding % Inhibition 10 μM: test compound 10 μM; for inhibition at 1 µM: read-out: [125I]-C5a Binding % Inhibition 1 μM, test compound 1 μM; for inhibition at 10 µM: read-out: [125I]-C5a Binding % Inhibition 10 μM, test compound 10 μM;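 on all read-outs here: cells preincubated with compound 30 min at room temperature, then 60 min at 4 °C with radioligand, bound counts read by scintillation, nonspecific binding defined with 100 nM C5a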
Description: Competition binding assays for C5a receptors were performed by incubation of differentiated U937 cells (200,000 cells/well), test compound (1% DMSO) and [^125I]-C5a (Bolton & Hunter labeled, Perkin Elmer, specific activity=2200 Ci/mmol, 0.05 nM final) in binding buffer consisting of 50 mM HEPES, 5 mM MgCl2, 1 mM CaCl2, 0.5% protease-free BSA, 0.02% NaN3, pH 7.4. 100× solutions of test compounds were prepared in DMSO and further diluted in binding buffer. Non-specific binding was defined in wells containing 100 nM recombinant C5a. Cells and compound were pre-incubated for 30 min at RT. After addition of the radioligand, further incubation for 60 min occurred at 4° C. Cells were harvested on GF/B filters—presoaked in 0.5% polyethylenimine, followed by washing with binding buffer containing 500 mM NaCl, pH 7.4. Filter bound radioactivity was determined by liquid scintillation counting. IC50 and Ki values were calculated using non-linear regression in Graphpad Prism. Ki is calculated using the equation of Cheng and Prusoff (Biochem. Pharmacol. 1973, 22: 3099-3108)

## CCc1cccc(CC)c1-c1cc(OC)c2c(n1)CCCC2N(C)c1cccc2cc(OC)ccc12 (stereo not shown) [Compound 22]
[1]
  IC50: 176 nM
[2]
  [125I]-C5a Binding % Inhibition 1 μM: 87%
  [125I]-C5a Binding % Inhibition 10 μM: 86%

## CCc1cccc(CC)c1-c1cc(OC)c2c(n1)CCCC2N(CC)c1cccc2c1CCCC2 (stereo not shown) [Compound 24]
[1]
  IC50: 216 nM
[2]
  inhibition at 1 µM: 88%
  inhibition at 10 µM: 91%

## CCc1cccc(CC)c1-c1cc(OCc2ccccc2)c2c(n1)CCCC2N(CC)c1cccc2ccccc12 (stereo not shown) [Compound 27]
[1]
  IC50: 273 nM
[2]
  inhibition at 1 µM: 90%
  inhibition at 10 µM: 94%

## CCc1cccc(CC)c1-c1cc(OC)c2c(n1)CCCC2Nc1cc(C(F)(F)F)ccc1C (stereo not shown) [Compound 28]
[1]
  IC50: 287 nM
[2]
  inhibition at 1 µM: 88%
  inhibition at 10 µM: 92%

## CCc1cccc(CC)c1-c1cc(OC)c2c(n1)CCCC2Oc1cc(OC)ccc1C (stereo not shown) [Compound 29]
[1]
  IC50: 338 nM
[2]
  inhibition at 1 µM: 88%
  inhibition at 10 µM: 89%

## CCN(c1cccc2ccccc12)C1CCCc2nc(-c3ccccc3C)cc(OC)c21 (stereo not shown) [Compound 30]
[1]
  IC50: 354 nM
[2]
  inhibition at 1 µM: 68%
  inhibition at 10 µM: 82%

## CCc1cccc(CC)c1-c1cc(OC)c2c(n1)CCCC2Nc1cc(OC)ccc1Cl (stereo not shown) [Compound 32]
[1]
  IC50: 380 nM
[2]
  inhibition at 1 µM: 88%
  inhibition at 10 µM: 91%

## CCc1cccc(CC)c1-c1cc(OC)c2c(n1)CCCC2Nc1cc(OC)ccc1OC (stereo not shown) [Compound 34]
[1]
  IC50: 417 nM
[2]
  inhibition at 1 µM: 83%
  inhibition at 10 µM: 89%

## CCc1cccc(CC)c1-c1cc(OC)c2c(n1)CCCC2N(C)c1ccc(OC)c2ccccc12 (stereo not shown) [Compound 36]
[1]
  IC50: 531 nM
[2]
  inhibition at 1 µM: 86%
  inhibition at 10 µM: 87%

## COc1ccc(C)c(NC2CCCc3nc(-c4c(C)cccc4C)cc(OC)c32)c1 (stereo not shown) [Compound 37]
[1]
  IC50: 543 nM
[2]
  inhibition at 1 µM: 74%
  inhibition at 10 µM: 86%

## CCc1cccc(CC)c1-c1cc(OC)c2c(n1)CCCC2N(C)c1cc(OC)ccc1C (stereo not shown) [Compound 38]
[1]
  IC50: 560 nM
[2]
  inhibition at 1 µM: 84%
  inhibition at 10 µM: 87%

## CCc1cccc(CC)c1-c1cc(OC)c2c(n1)CCCC2N(C)c1cc(C)ccc1C (stereo not shown) [Compound 40]
[1]
  IC50: 687 nM
[2]
  inhibition at 1 µM: 88%
  inhibition at 10 µM: 88%

## CCc1ccccc1NC1CCCc2nc(-c3c(CC)cccc3CC)cc(OC)c21 (stereo not shown) [Compound 41]
[1]
  IC50: 732 nM
[2]
  inhibition at 1 µM: 85%
  inhibition at 10 µM: 86%

## CCc1cccc(CC)c1-c1cc(OC)c2c(n1)CCCC2N(C)c1ccccc1C (stereo not shown) [Compound 42]
[1]
  IC50: 792 nM
[2]
  inhibition at 1 µM: 83%
  inhibition at 10 µM: 86%

## CCc1cccc(CC)c1-c1cc(OC)c2c(n1)CCC[C@H]2N(C)[C@H]1CCCc2ccccc21 [Compound 43]
[1]
  IC50: 817 nM
[2]
  inhibition at 1 µM: 80%
  inhibition at 10 µM: 83%

## CCc1cccc(CC)c1-c1cc(OC)c2c(n1)CCCC2N1CCc2cccc(C(=O)OC)c2C1 (stereo not shown) [Compound 44]
[1]
  IC50: 839 nM
[2]
  inhibition at 1 µM: 77%
  inhibition at 10 µM: 87%

## CCc1cccc(CC)c1-c1cc(OC)c2c(n1)CCCC2N1CCc2ccc(F)cc2C1 (stereo not shown) [Compound 45]
[1]
  IC50: 878 nM
[2]
  inhibition at 1 µM: 74%
  inhibition at 10 µM: 87%

## CCc1cccc(CC)c1-c1cc(OC)c2c(n1)CCCC2N(C)c1cc(OC)ccc1Cl (stereo not shown) [Compound 47]
[1]
  IC50: 949 nM
[2]
  inhibition at 1 µM: 83%
  inhibition at 10 µM: 89%

## COc1cc(-c2c(C)cccc2C)nc2c1C(N(C)c1ccc(Cl)c3ccccc13)CCC2 (stereo not shown) [Compound 48]
[1]
  IC50: 1210 nM
[2]
  inhibition at 1 µM: 85%
  inhibition at 10 µM: 91%

## COc1cc(-c2c(C)cccc2C)nc2c1C(N(CC#N)c1cccc3ccccc13)CCC2 (stereo not shown) [Compound 49]
[1]
  IC50: 1380 nM
[2]
  inhibition at 1 µM: 59%
  inhibition at 10 µM: 80%

## CCc1cccc(CC)c1-c1cc(OC)c2c(n1)CCCC2Nc1cc(F)ccc1C (stereo not shown) [Compound 50]
[1]
  IC50: 1380 nM
[2]
  inhibition at 1 µM: 83%
  inhibition at 10 µM: 85%

## CCc1cccc(CC)c1-c1cc(OC)c2c(n1)CCCC2N1CCc2ccc(Cl)cc2C1 (stereo not shown) [Compound 51]
[1]
  IC50: 1410 nM
[2]
  inhibition at 1 µM: 83%
  inhibition at 10 µM: 89%

## CCc1cccc(CC)c1-c1cc(OC)c2c(n1)CCCC2N(C)c1c(C)ccc2ccccc12 (stereo not shown) [Compound 52]
[1]
  IC50: 1480 nM
[2]
  inhibition at 1 µM: 86%
  inhibition at 10 µM: 86%

## CCc1cccc(CC)c1-c1cc(OC)c2c(n1)CCCC2Nc1cc(Cl)ccc1C (stereo not shown) [Compound 53]
[1]
  IC50: 1490 nM
[2]
  inhibition at 1 µM: 85%
  inhibition at 10 µM: 91%

## CCc1cccc(CC)c1-c1cc(OC)c2c(n1)CCCC2N(C)N1CCCc2ccccc21 (stereo not shown) [Compound 54]
[1]
  IC50: 1580 nM
[2]
  inhibition at 1 µM: 74%
  inhibition at 10 µM: 87%

## CCc1cccc(CC)c1-c1cc(OC)c2c(n1)CCCC2N1CCc2c(Cl)cccc2C1 (stereo not shown) [Compound 56]
[1]
  IC50: 1690 nM
[2]
  inhibition at 1 µM: 84%
  inhibition at 10 µM: 85%

## CCN(c1cccc2ccccc12)C1CCCc2nc(-c3ccccc3C(C)C)cc(OC)c21 (stereo not shown) [Compound 57]
[1]
  IC50: 1730 nM
[2]
  inhibition at 1 µM: 76%
  inhibition at 10 µM: 89%

## COc1cc(-c2c(C)cccc2C)nc2c1C(N(C)c1cccc3ccccc13)CCC2 (stereo not shown) [Compound 61]
[1]
  IC50: 2190 nM
[2]
  inhibition at 1 µM: 76%
  inhibition at 10 µM: 88%

## CCc1cccc(CC)c1-c1cc(OC)c2c(n1)CCCC2Nc1ccc(OC)cc1C (stereo not shown) [Compound 63]
[1]
  IC50: 2350 nM
[2]
  inhibition at 1 µM: 74%
  inhibition at 10 µM: 82%

## CCc1cccc(CC)c1-c1cc(OC)c2c(n1)CCCC2N1CCCc2ccccc21 (stereo not shown) [Compound 65]
[1]
  IC50: 2430 nM
[2]
  [125I]-C5a Binding % Inhibition 1 μM: −7% and 1%

## CCc1cccc(CC)c1-c1cc(OC)c2c(n1)CCCC2Nc1cc(-c2ccccc2)ccc1C (stereo not shown) [Compound 66]
[1]
  IC50: 2460 nM
[2]
  inhibition at 1 µM: 83%
  inhibition at 10 µM: 88%

## CCc1cccc(CC)c1-c1cc(OC)c2c(n1)CCCC2N(C)c1cc(Cl)ccc1C (stereo not shown) [Compound 67]
[1]
  IC50: 2560 nM
[2]
  inhibition at 1 µM: 82%
  inhibition at 10 µM: 86%

## CCc1cccc(CC)c1-c1cc(OC)c2c(n1)CCCC2N(C)c1cc(OC)ccc1OC (stereo not shown) [Compound 68]
[1]
  IC50: 2570 nM
[2]
  inhibition at 1 µM: 66%
  inhibition at 10 µM: 76%

## COc1ccc(C)c(N(C)C2CCCc3nc(-c4c(C)cccc4C)cc(OC)c32)c1 (stereo not shown) [Compound 69]
[1]
  IC50: 3220 nM
[2]
  inhibition at 1 µM: 76%
  inhibition at 10 µM: 85%

## CCc1cccc(CC)c1-c1cc(OC)c2c(n1)CCCC2N(C)c1cccc2c1CCC2 (stereo not shown) [Compound 72]
[1]
  IC50: 3790 nM
[2]
  inhibition at 1 µM: 86%
  inhibition at 10 µM: 85%

## CCc1cccc(CC)c1-c1cc(OC)c2c(n1)CCCC2Nc1ccccc1C#N (stereo not shown) [Compound 74]
[1]
  IC50: 4900 nM
[2]
  inhibition at 1 µM: 19%
  inhibition at 10 µM: 52%

## CCN(c1cccc(C)c1C)C1CCCc2nc(-c3c(C)cccc3C)cc(OC)c21 (stereo not shown) [Compound 76]
[1]
  IC50: 5130 nM
[2]
  inhibition at 1 µM: 83%
  inhibition at 10 µM: 85%

## CCc1cccc(CC)c1-c1cc(OC)c2c(n1)CCC[C@@H]2N(C)[C@H]1CCCc2ccccc21 [Compound 77]
[1]
  IC50: 5500 nM
[2]
  [125I]-C5a Binding % Inhibition 10 μM: 72%

## CCc1cccc(CC)c1-c1cc(OC)c2c(n1)CCCC2N(C(C)=O)c1cccc2ccccc12 (stereo not shown) [Compound 79]
[1]
  IC50: 6170 nM
[2]
  inhibition at 1 µM: 49%
  inhibition at 10 µM: 78%

## CCc1cccc(CC)c1-c1cc(OC)c2c(n1)CCCC2N(C)c1ccc(OC)cc1C (stereo not shown) [Compound 80]
[1]
  IC50: 6190 nM
[2]
  inhibition at 1 µM: 80%
  inhibition at 10 µM: 81%

## CCc1cccc(CC)c1-c1cc(OC)c2c(n1)CCCC2Nc1cccc(OC)c1 (stereo not shown) [Compound 81]
[1]
  IC50: 7410 nM
[2]
  inhibition at 1 µM: 55%
  inhibition at 10 µM: 71%

## CCc1cccc(CC)c1-c1cc(OC)c2c(n1)CCCC2N(C)C1CCCc2ccccc21 (stereo not shown) [Compound 83]
[1]
  IC50: 8130 nM
[2]
  [125I]-C5a Binding % Inhibition 1 μM: 51%
  [125I]-C5a Binding % Inhibition 10 μM: 71%

## CCc1cccc(CC)c1-c1cc(OC)c2c(n1)CCCC2OCc1ccccc1 (stereo not shown) [Compound 86]
[1]
  IC50: > 10000 nM
[2]
  inhibition at 1 µM: 49%
  inhibition at 10 µM: 64%
